Test results from patent US9096589B2, “Heteroaromatic phenylimidazole derivatives as PDE10A enzyme inhibitors” (H. Lundbeck A/S, priority 2009, dated 2015).

The compounds below were run against PDE10A (Homo sapiens (Human), UniProt Q9Y233) (assay: PDE10A inhibition assay).
Format: biochemical
Method: Active PDE10A enzyme is prepared in a number of ways for use in PDE assays (Loughney, K. et al. Gene 1999, 234, 109-117; Fujishige, K. et al. Eur J. Biochem. 1999, 266, 1118-1127 and Soderling, S. et al. Proc. Natl. Acad. Sci. 1999, 96, 7071-7076). PDE10A can be expressed as full-length proteins or as truncated proteins, as long as they express the catalytic domain. PDE10A can be prepared in different cell types, for example insect cells or E. coli. An example of a method to obtain catalytically active PDE10A is as follows: The catalytic domain of human PDE10A (amino acids 440-779 from the sequence with accession number NP 006652) is amplified from total human brain total RNA by standard RT-PCR and is cloned into the BamH1 and Xho1 sites of the pET28a vector (Novagen). Expression in coli is performed according to standard protocols. Briefly, the expression plasmids are transformed into the BL21(DE3) E. coli strain, and 50 mL cultures inoculated with the cells allowed to grow to an OD600 of 0.4-0.6 before protein expression is induced with 0.5 mM IPTG. Following induction, the cells are incubated overnight at room temperature, after which the cells are collected by centrifugation. Cells expressing PDE10A are resuspended in 12 mL (50 mM TRIS-HCl-pH8.0, 1 mM MgCl2 and protease inhibitors). The cells are lysed by sonication, and after all cells are lysed, TritonX100 is added according to Novagen protocols.
A PDE10A assay may for example, be performed as follows: The assay is performed in 60 uL samples containing a fixed amount of the relevant PDE enzyme (sufficient to convert 20-25% of the cyclic nucleotide substrate); a buffer (50 mM HEPES7.6; 10 mM MgCl2; 0.02% Tween20), 0.1 mg/ml BSA, 225 pCi of ^3H-labelled cyclic nucleotide substrate, tritium labeled cAMP to a final concentration of 5 nM and varying amounts of inhibitors. Reactions are initiated by addition of the cyclic nucleotide substrate, and reactions are allowed to proceed for one hr at room temperature before being terminated through mixing with 15 uL 8 mg/mL yttrium silicate SPA beads (Amersham). The beads are allowed to settle for one hr in the dark before the plates are counted in a Wallac 1450 Microbeta counter. The measured signal can be converted to activity relative to an uninhibited control (100%) and IC50 values can be calculated using the Xlfit extension to EXCEL.

PDE10A, sequence (Q9Y233 716-1055): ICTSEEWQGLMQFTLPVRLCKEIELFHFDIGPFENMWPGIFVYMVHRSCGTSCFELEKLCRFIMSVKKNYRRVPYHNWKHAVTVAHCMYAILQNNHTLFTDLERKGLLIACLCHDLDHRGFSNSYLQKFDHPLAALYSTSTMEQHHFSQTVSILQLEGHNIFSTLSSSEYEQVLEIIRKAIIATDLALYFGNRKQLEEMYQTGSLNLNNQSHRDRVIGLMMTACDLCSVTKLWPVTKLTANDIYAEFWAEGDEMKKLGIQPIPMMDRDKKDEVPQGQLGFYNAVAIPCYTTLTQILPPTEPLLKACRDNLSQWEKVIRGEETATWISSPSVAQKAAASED

| Compound | IC50 [nM] |
| --- | --- |
| COc1ccc(C)n2nc(CCc3nc(-c4cccs4)c[nH]3)nc12 [8-Methoxy-5-methyl-2-[2-(4-thiophen-2-yl-1H-imidazol-2-yl)-ethyl]-[1,2,4]triazolo[1,5-a]pyridine] | 1.1 |
| COc1ccc(C)n2nc(CCc3nc(-c4cccs4)cn3CCN3CCOCC3)nc12 [8-Methoxy-5-methyl-2-{2-[1-(2-morpholin-4-yl-ethyl)-4-thiophen-2-yl-1H-imidazol-2-yl]-ethyl}-[1,2,4]triazolo[1,5-a]pyridine] | 0.33 |
| Cc1ncc(C)n2nc(CCc3nc(-c4cccs4)cn3C)nc12 [5,8-Dimethyl-2-[2-(1-methyl-4-thiophen-2-yl-1H-imidazol-2-yl)-ethyl]-[1,2,4]triazolo[1,5-a]pyrazine] | 0.39 |
| Cc1cc(C)n2cc(CCc3nc(-c4cccs4)cn3CC(C)C)nc2n1 [2-[2-(1-Isobutyl-4-thiophen-2-yl-1H-imidazol-2-yl)-ethyl]-5,7-dimethyl-imidazo[1,2-a]pyrimidine] | 12 |
| Cc1cc(C)n2cc(/C=C/c3nc(-c4cncs4)cn3C)nc2n1 [5,7-Dimethyl-2-[(E)-2-(1-methyl-4-thiazol-5-yl-1H-imidazol-2-yl)-vinyl]-imidazo[1,2-a]pyrimidine] | 97 |
| COc1cccn2nc(CCc3nc(-c4cccs4)cn3C)nc12 [8-Methoxy-2-[2-(1-methyl-4-thiophen-2-yl-1H-imidazol-2-yl)-ethyl]-[1,2,4]triazolo[1,5-a]pyridine] | 4.5 |
| COc1ccc(C)n2nc(CCc3nc(-c4cccs4)cn3CCCC#N)nc12 [4-{2-[2-(8-Methoxy-5-methyl-[1,2,4]triazolo[1,5-a]pyridin-2-yl)-ethyl]-4-thiophen-2-yl-imidazol-1-yl}-butyronitrile] | 1.7 |
| Cc1cccn2nc(CCc3nc(-c4cccnc4)c[nH]3)nc12 [8-Methyl-2-[2-(4-pyridin-3-yl-1H-imidazol-2-yl)-ethyl]-[1,2,4]triazolo[1,5-a]pyridine] | 64 |
| Cc1cc(C)n2cc(CCc3nc(-c4cccs4)cn3COCC[Si](C)(C)C)nc2n1 [5,7-Dimethyl-2-{2-[4-thiophen-2-yl-1-(2-trimethylsilanyl-ethoxymethyl)-1H-imidazol-2-yl]-ethyl}-imidazo[1,2-a]pyrimidine] | 9.6 |
| Cc1cc(C)n2cc(CCc3nc(-c4cccs4)cn3CC(O)CF)nc2n1 (stereo not shown) [1-{2-[2-(5,7-Dimethyl-imidazo[1,2-a]pyrimidin-2-yl)-ethyl]-4-thiophen-2-yl-imidazol-1-yl}-3-fluoro-propan-2-ol] | 14 |
| Cc1ccc(C)n2nc(CCc3nc(-c4cccs4)cn3C)nc12 [5,8-Dimethyl-2-[2-(1-methyl-4-thiophen-2-yl-1H-imidazol-2-yl)-ethyl]-[1,2,4]triazolo[1,5-a]pyridine] | 1 |
| Cc1cccc2nc(CCc3nc(-c4cccs4)cn3C[C@@H](O)CN(C)C)nn12 [(S)-1-Dimethylamino-3-{2-[2-(5-methyl-[1,2,4]triazolo[1,5-a]pyridin-2-yl)-ethyl]-4-thiophen-2-yl-imidazol-1-yl}-propan-2-ol] | 47 |
| CCCn1cc(-c2cccs2)nc1CCc1nc2c(OC)ccc(C)n2n1 [8-Methoxy-5-methyl-2-[2-(1-propyl-4-thiophen-2-yl-1H-imidazol-2-yl)-ethyl]-[1,2,4]triazolo[1,5-a]pyridine] | 1.2 |
| Cc1cccc2nc(CCc3nc(-c4cccs4)cn3C[C@@H](O)CCl)nn12 [(R)-1-Chloro-3-{2-[2-(5-methyl-[1,2,4]triazolo[1,5-a]pyridin-2-yl)-ethyl]-4-thiophen-2-yl-imidazol-1-yl}-propan-2-ol] | 2.8 |
| Cn1cc(-c2cccs2)nc1/C=C/c1nc2c(F)cccn2n1 [8-Fluoro-2-[(E)-2-(1-methyl-4-thiophen-2-yl-1H-imidazol-2-yl)-vinyl]-[1,2,4]triazolo[1,5-a]pyridine] | 100 |
| Cc1ccc(-c2cn(COCC[Si](C)(C)C)c(/C=C/c3nc4cccc(C)n4n3)n2)s1 [5-Methyl-2-{(E)-2-[4-(5-methyl-thiophen-2-yl)-1-(2-trimethylsilanyl-ethoxymethyl)-1H-imidazol-2-yl]-vinyl}-[1,2,4]triazolo[1,5-a]pyridine] | 210 |
| Cc1cc(C)n2cc(/C=C/c3nc(-c4ccsc4)cn3C)nc2n1 [5,7-Dimethyl-2-[(E)-2-(1-methyl-4-thiophen-3-yl-1H-imidazol-2-yl)-vinyl]-imidazo[1,2-a]pyrimidine] | 56 |

| Compound | IC50 [nM] |
| --- | --- |
| Cn1cc(-c2cncs2)nc1/C=C/c1nc2c(F)cccn2n1 [8-Fluoro-2-[(E)-2-(1-methyl-4-thiazol-5-yl-1H-imidazol-2-yl)-vinyl]-[1,2,4]triazolo[1,5-a]pyridine] | 300 |
| CCCn1cc(-c2cccs2)nc1CCc1cn2c(C)cc(C)nc2n1 [5,7-Dimethyl-2-[2-(1-propyl-4-thiophen-2-yl-1H-imidazol-2-yl)-ethyl]-imidazo[1,2-a]pyrimidine] | 3.4 |
| Cc1cccc2nc(CCc3nc(-c4cncs4)cn3C)nn12 [5-Methyl-2-[2-(1-methyl-4-thiazol-5-yl-1H-imidazol-2-yl)-ethyl]-[1,2,4]triazolo[1,5-a]pyridine] | 39 |
| COc1cccn2nc(CCc3nc(-c4ccc(C)o4)cn3C)nc12 [8-Methoxy-2-{2-[1-methyl-4-(5-methyl-furan-2-yl)-1H-imidazol-2-yl]-ethyl}-[1,2,4]triazolo[1,5-a]pyridine] | 56 |
| COc1cccn2nc(CCc3nc(-c4ccsc4)cn3C)nc12 [8-Methoxy-2-[2-(1-methyl-4-thiophen-3-yl-1H-imidazol-2-yl)-ethyl]-[1,2,4]triazolo[1,5-a]pyridine] | 16 |
| Cc1ccc(-c2cn(C)c(CCc3nc4c(C)ccc(C)n4n3)n2)o1 [5,8-Dimethyl-2-{2-[1-methyl-4-(5-methyl-furan-2-yl)-1H-imidazol-2-yl]-ethyl}-[1,2,4]triazolo[1,5-a]pyridine] | 4.2 |
| COc1ccc(C)n2nc(CCc3nc(-c4ccoc4)cn3C)nc12 [2-[2-(4-Furan-3-yl-1-methyl-1H-imidazol-2-yl)-ethyl]-8-methoxy-5-methyl-[1,2,4]triazolo[1,5-a]pyridine] | 4 |
| Cc1cc(C)n2nc(CCc3nc(-c4cccnc4)cn3C)nc2n1 [5,7-Dimethyl-2-[2-(1-methyl-4-pyridin-3-yl-1H-imidazol-2-yl)-ethyl]-[1,2,4]triazolo[1,5-a]pyrimidine] | 44 |
| Cc1cnc(C)n2nc(CCc3nc(-c4nccs4)cn3C)nc12 [,8-Dimethyl-2-[2-(1-methyl-4-thiazol-2-yl-1H-imidazol-2-yl)-ethyl]-[1,2,4]triazolo[1,5-c]pyrimidine] | 12 |
| Cc1ncc(C)n2nc(CCc3nc(-c4cnccn4)cn3C)nc12 [5,8-Dimethyl-2-[2-(1-methyl-4-pyrazin-2-yl-1H-imidazol-2-yl)-ethyl]-[1,2,4]triazolo[1,5-a]pyrazine] | 0.52 |
| Cc1ccc(C)n2nc(CCc3nc(-c4cscn4)cn3C)nc12 [5,8-Dimethyl-2-[2-(1-methyl-4-thiazol-4-yl-1H-imidazol-2-yl)-ethyl]-[1,2,4]triazolo[1,5-a]pyridine] | 0.4 |
| COCC(O)Cn1cc(-c2cccs2)nc1CCc1nc2cccc(C)n2n1 (stereo not shown) [1-Methoxy-3-{2-[2-(5-methyl-[1,2,4]triazolo[1,5-a]pyridin-2-yl)-ethyl]-4-thiophen-2-yl-imidazol-1-yl}-propan-2-ol] | 7.5 |
| Cc1cccc2nc(CCc3nc(-c4ccsc4)c[nH]3)nn12 [5-Methyl-2-[2-(4-thiophen-3-yl-1H-imidazol-2-yl)-ethyl]-[1,2,4]triazolo[1,5-a]pyridine] | 5.7 |
| Cc1ncc(C)n2nc(CCc3nc(-c4cncnc4)cn3C)nc12 [5,8-Dimethyl-2-[2-(1-methyl-4-pyrimidin-5-yl-1H-imidazol-2-yl)-ethyl]-[1,2,4]triazolo[1,5-a]pyrazine] | 0.44 |
| Cc1cccc2nc(CCc3nc(-c4cccs4)cn3C[C@@H](O)CN(C)CCO)nn12 [(S)-1-[(2-Hydroxy-ethyl)-methyl-amino]-3-{2-[2-(5-methyl-[1,2,4]triazolo[1,5-a]pyridin-2-yl)-ethyl]-4-thiophen-2-yl-imidazol-1-yl}-propan-2-ol] | 16 |
| COc1ccc(C)n2nc(CCc3nc(-c4cccs4)cn3C)nc12 [8-Methoxy-5-methyl-2-[2-(1-methyl-4-thiophen-2-yl-1H-imidazol-2-yl)-ethyl]-[1,2,4]triazolo[1,5-a]pyridine] | 1.5 |
| Cc1ccc(-c2cn(C)c(CCc3nc4c(F)cccn4n3)n2)o1 [8-Fluoro-2-{2-[1-methyl-4-(5-methyl-furan-2-yl)-1H-imidazol-2-yl]-ethyl}-[1,2,4]triazolo[1,5-a]pyridine] | 94 |
